These results are taken from ChEMBL document CHEMBL4732177 (J Med Chem, 2021).

A short description of series [1]: Induction of hypothermia in Sprague-Dawley rat assessed as drop in body temperature at 30 microg/kg, IT measured every 10 mins upto 60 mins by thermistor probe analysis. Conditions: in vivo, icv_or_intrathecal, 0.03 mg/kg, dose 30 µg/kg.
Series [2] concerns the target Neurotensin receptor type 2 (Homo sapiens, UniProt O95665). Briefly: Binding affinity to NTS2 (unknown origin).
The species named for series [3] is Rattus norvegicus. Briefly: animal or person. The following applies: Sprague-Dawley, sc, 1 h.
Description: Antinociceptive activity in Sprague-Dawley rat model assessed as effective dose administered subcutaneously and measured every 10 mins for 60 mins by radiant heat tail-flick test
Series [4] deals with Rattus norvegicus. Briefly: Antinociceptive activity in Sprague-Dawley rat model assessed as maximum possible effect at 10 mg/kg, sc measured every 10 mins for 60 mins by radiant heat tail-flick test relative to control. Conditions: 1 h. Format: functional. In general terms: Hot-plate and tail-flick tests time the reaction to a heat stimulus.
In series [5] the test system is Rattus norvegicus. Briefly: Antinociceptive activity in Sprague-Dawley rat model administered subcutaneously and measured every 10 mins for 60 mins by radiant heat tail-flick test. Format: functional, organism-based. The following applies: dose 1-10 mg/kg.
Series [6] addresses Neurotensin receptor type 1 (Mus musculus, UniProt O88319). As to the kind of experiment: Displacement of [3H]-neurotensin from NTS1 in mouse brain membrane incubated for 30 mins by liquid scintillation counter analysis. Format: cell membranes. Background: Loss of bound radioactivity is the signal in a displacement assay; it reports binding, not function.
The nature of series [7]: Toxicity in Sprague-Dawley rat assessed as induction of tremor at 1 microg/kg, IT. The following applies: in vivo, icv_or_intrathecal, 0.001 mg/kg, dose 1 µg/kg.
In series [8] the test system is Rattus norvegicus. As to the kind of experiment: Antinociceptive activity in Sprague-Dawley rat model of formalin-induced nociception pain assessed as reduction in pain behaviour by measuring less lifting of formalin injected hind paw during inflammatory phase at 1 microg/kg, IT. It is filed as functional, organism-based. The following applies: dose 1.0 µg/kg.
Series [9] relates to Rattus norvegicus. As to the kind of experiment: Antinociceptive activity in Sprague-Dawley rat model of formalin-induced nociception pain assessed as reduction in pain behaviour by measuring less lifting of formalin injected hind paw during acute phase at 1 microg/kg, IT measured for 9 mins. It is filed as functional, organism-based. The following applies: dose 1.0 µg/kg.
Series [10] is described as follows: Toxicity in Sprague-Dawley rat assessed as induction of drowsiness at 1 microg/kg, IT. Conditions: in vivo, icv_or_intrathecal, 0.001 mg/kg, dose 1 µg/kg.
A short description of series [11]: Toxicity in Sprague-Dawley rat assessed as induction of ataxia at 1 microg/kg, IT. The following applies: in vivo, icv_or_intrathecal, 0.001 mg/kg, dose 1 µg/kg.
Series [12] can be described thus: Toxicity in Sprague-Dawley rat assessed as induction of hyperactivity at 1 microg/kg, IT. The following applies: in vivo, icv_or_intrathecal, 0.001 mg/kg, dose 1 µg/kg.
Series [13] is described as follows: Toxicity in Sprague-Dawley rat assessed as induction of abnormal gait at 1 microg/kg, IT. Conditions: in vivo, icv_or_intrathecal, 0.001 mg/kg, dose 1 µg/kg.
A short description of series [14]: Toxicity in Sprague-Dawley rat assessed as induction of dizziness at 1 microg/kg, IT. Conditions: in vivo, icv_or_intrathecal, 0.001 mg/kg, dose 1 µg/kg.

Molecules are shown by their SMILES. The source made the active and inactive calls. The rule behind the calls is not given here. Numbered stars: 1 amine (or outer) side, 2 acyl side, 3 side chain; on linkers, the order of the positions; unused ones are H or OH. Bridge positions count the residues as written; N and C are the ends. Square brackets hold non-standard residues; d marks the D form. Peptide text beside a SMILES is read from it. X3 = NCCCC[C@H](N)CN([C@@H](CCCCN)C(=O)[*:2])[*:1]; NMeR = CN[C@@H](CCCNC(=N)N)C(=O)O; Tle = CC(C)(C)[C@H](N)C(=O)O

Neurotensin receptor type 2, sequence (O95665 whole entry): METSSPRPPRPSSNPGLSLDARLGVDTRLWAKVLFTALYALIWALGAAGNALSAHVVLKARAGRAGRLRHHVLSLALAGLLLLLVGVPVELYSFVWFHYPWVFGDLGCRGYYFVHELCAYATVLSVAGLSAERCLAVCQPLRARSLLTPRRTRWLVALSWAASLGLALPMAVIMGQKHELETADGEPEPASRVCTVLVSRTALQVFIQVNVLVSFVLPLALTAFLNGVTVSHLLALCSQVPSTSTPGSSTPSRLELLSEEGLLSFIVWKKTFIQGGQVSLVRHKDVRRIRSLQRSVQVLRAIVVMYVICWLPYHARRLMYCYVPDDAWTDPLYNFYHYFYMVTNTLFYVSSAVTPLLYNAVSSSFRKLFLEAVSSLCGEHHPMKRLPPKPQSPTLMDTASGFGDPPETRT
Neurotensin receptor type 1, sequence (O88319 whole entry): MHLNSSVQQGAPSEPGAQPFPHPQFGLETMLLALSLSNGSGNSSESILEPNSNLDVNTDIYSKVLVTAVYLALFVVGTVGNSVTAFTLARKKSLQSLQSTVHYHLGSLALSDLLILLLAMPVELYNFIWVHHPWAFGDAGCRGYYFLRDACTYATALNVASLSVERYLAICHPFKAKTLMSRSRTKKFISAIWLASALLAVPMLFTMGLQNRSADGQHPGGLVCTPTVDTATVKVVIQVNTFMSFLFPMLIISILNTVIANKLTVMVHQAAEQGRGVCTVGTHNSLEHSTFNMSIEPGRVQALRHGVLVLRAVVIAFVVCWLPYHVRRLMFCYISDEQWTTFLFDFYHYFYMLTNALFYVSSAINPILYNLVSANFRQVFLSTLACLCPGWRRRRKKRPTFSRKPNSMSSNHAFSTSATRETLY

`CCOC(=O)[C@H](CC(C)C)NC(=O)[C@@H](NC(=O)[C@H](Cc1c[nH]c2ccccc12)NC(=O)[C@@H]1CCCN1C(=O)[C@H](CCCCN)NC[C@@H](N)CCCCN)C(C)(C)C` (H-[X3]PW[Tle]L-OEt): the deltaT in series [1] was found to be 3 °C.
The term Ki denotes a dissociation constant, usually derived from enzyme kinetics or from competition with a known ligand. A lower Ki goes with tighter binding. In [2], `CC[C@H](C)[C@H](NC(=O)[C@@H]1Cc2ccc(O)c(c2)C/C=C/CCCCCC[C@H](N)C(=O)N[C@@H](CCCCN)C(=O)N2CCC[C@H]2C(=O)N1)C(=O)N[C@@H](CC(C)C)C(=O)O` yielded a Ki of 24 nM.
In turn, `CC[C@H](C)[C@H](NC(=O)[C@@H]1Cc2ccc(O)c(c2)C/C=C/CNCCCC[C@H](N)C(=O)N[C@@H](CCCCN)C(=O)N2CCC[C@H]2C(=O)N1)C(=O)N[C@@H](CC(C)C)C(=O)O` had a Ki in series [2] of 11000 nM.
By ED50 is commonly meant the dose that gives a 50% effect, or the effect in half of the subjects. The compound `CN1CC[C@]23c4c5ccc(O)c4O[C@H]2[C@@H](O)C=C[C@H]3[C@H]1C5` [MORPHINE] yielded a 50% effective dose (ED50) in the series filed under Rattus norvegicus [3] of 3.6 mg/kg. Also, the MPE in the series with Rattus norvegicus [4] is given as 83.3%. Also, the Activity result in the series on Rattus norvegicus [5] was “Dose-dependent effect”.
As to `CC[C@H](C)[C@H](NC(=O)[C@@H]1Cc2ccc(O)c(c2)C/C=C/CCCCCCC(=O)N[C@@H](CCCCN)C(=O)N2CCC[C@H]2C(=O)N1)C(=O)N[C@@H](CC(C)C)C(=O)O`, in series [2], the Ki is > 1 nM.
As for `CN[C@@H](CCCNC(=N)N)C(=O)N[C@H]1CCCCNC(=O)CC[C@@H](C(=O)N[C@@H](CC(C)C)C(=O)O)NC(=O)[C@H](Cc2c[nH]c3ccccc23)NC(=O)[C@@H]2CCCN2C1=O` (H-[NMeR]KPWEL-OH; lactam 2-5), in series [6], the affinity, expressed as Ki, was 770 nM.
Regarding `CSCC[C@@H]1NC(=O)[C@H](CC(C)C)NC(=O)[C@H](CCCNC(=N)N)NC(=O)[C@H](CO)NC(=O)[C@@H]2CSSC[C@@H]3NC(=O)[C@H](CO)NC(=O)CNC(=O)[C@H]([C@@H](C)O)NC(=O)[C@H](CSSC[C@H](N)C(=O)N[C@@H](CCCCN)C(=O)NCC(=O)N[C@@H](CCCCN)C(=O)NCC(=O)N[C@@H](C)C(=O)N[C@@H](CCCCN)C(=O)N2)NC(=O)[C@H](CSSC[C@@H](C(N)=O)NC(=O)[C@H](CCCCN)NC(=O)CNC(=O)[C@H](CO)NC(=O)[C@H](CCCNC(=N)N)NC3=O)NC(=O)[C@H](CC(=O)O)NC(=O)[C@H](Cc2ccc(O)cc2)NC1=O` [ZICONOTIDE], the Activity result in [7], in series [10], in series [11], in series [12], in series [13] and in series [14] was “Toxic” throughout. Besides, the outcome with Rattus norvegicus [8] and with Rattus norvegicus [9] was Active.
